Values joined by “and” are separate entries in the source; they are usually repeats but may differ in a detail not shown here. Identical values can stand only once.
What was measured:
[1] = system: carrageenan-induced edema in rat paw; assay: Inhibition of carrageenan-induced paw edema in rats; details: vs vehicle control; aspirin 150 mg/kg p.o., hydrocortisone 25 mg/kg p.o., PIP[4,4,4] 30 mg/kg i.p.; >30% significant
[2] = system: adjuvant-induced arthritis; assay: Adjuvant-induced arthritis model in Lewis rats (Table 7); details: p.o. 5 days, DiPIPs 100 mg/kg, Voltaren and indomethacin 6 mg/kg; for % FINAL INHIBITION: Day 28-0
Description: Four groups consisting of 6 male Lewis rats weighing 150-200 g were injected subcutaneously at the base of the tail with 0.1 ml of CFA. Drugs to be assayed were administered 5 days beginning on the day of the adjuvant injection. The paw volume of the right and left rear paw of each rat were measured on the day of adjuvant injection and at regular intervals for 30 days thereafter.
The emulsion was injected subcutaneously at the base of the tail and induced the arthritic state. Measurements of paw volume were made for 30 days to monitor paw swelling. Drug treatment began on Day 0.
Four groups consisting of 10 male Lewis rats weighing 150-200 g were injected subcutaneously at the base of the tail with 0.1 ml of CFA. Drugs to be assayed were administered for 5 days beginning on the day of the adjuvant injection.

[3] = system: adjuvant-induced arthritis; details: for Inhibition % B (5-0): 5th day after 5 doses; for Inhibition % B (5-0) / Inhibition % A (1-0): p.o.: PIP[4,4,4] 100, hydrocortisone 30, indomethacin 5 mg/kg; for Inhibition % B (5-0) / Inhibition % A (1-0) / Inhibition % C (5-1) / Inhibition % D (14-0) / Inhibition % F (18-14) / Inhibition % E (18-0): >30% significant; for Net swelling of paw volume A (1-0), average: Day 1 - Day 0, average; for Net swelling of paw volume B (5-0), average: Day 5 - Day 0, average; for Net swelling of paw volume B (5-0): Day 5 - Day 0, individual rat; for Net swelling of paw volume C (5-1), average: Day 5 - Day 1, average; for Net swelling of paw volume C (5-1): Day 5 - Day 1, individual rat; for Polyarthritis E (ears) / Polyarthritis N (noses) / Polyarthritis P (paws) / Polyarthritis T (tails): Day 19, individual rat; for Inhibition % A (1-0): first day, after one dose; for Inhibition % C (5-1): paw volume change Day 1 to Day 5; for Net swelling of paw volume D (14-0), average / Net swelling of paw volume D (14-0) / Inhibition % D (14-0) / Inhibition % F (18-14) / Net swelling of paw volume E (18-0), average / Net swelling of paw volume E (18-0) / Net swelling of paw volume F (18-14), average / Net swelling of paw volume F (18-14) / Inhibition % E (18-0): untreated paw; for Net swelling of paw volume D (14-0), average: Day 14 - Day 0, average; for Net swelling of paw volume D (14-0): Day 14 - Day 0, individual rat; for Inhibition % D (14-0): Day 14 relative to Day 0; for Inhibition % F (18-14): Day 14 to Day 18; for Net swelling of paw volume E (18-0), average: Day 18 - Day 0, average; for Net swelling of paw volume E (18-0): Day 18 - Day 0, individual rat; for Net swelling of paw volume F (18-14), average: Day 18 - Day 14, average; for Net swelling of paw volume F (18-14): Day 18 - Day 14, individual rat; for Inhibition % E (18-0): Day 18 relative to Day 0; for Weight gain reductions (in words): vs vehicle-treated animals, 18 day study
[4] = p.o. × 5: PIP[4,4,4] 100, hydrocortisone 30, indomethacin 5 mg/kg

CC(=O)Oc1ccccc1C(=O)O [Aspirin]
% Edema inhibition [1]: 46%

O=C(O)Cc1ccccc1Nc1c(Cl)cccc1Cl [Voltaren]
% FINAL INHIBITION [2]: 67% | FINAL DAY 28-0 (paw volume) [2]: .629 | INITIAL DAY 14-0 (paw volume) [2]: .232

C(CCNC1CCNCC1)CNC1CCNCC1 [DiPIP[3,4,3], N,N'-Bis(4-piperidinyl)-1,4-butanediamine]
% FINAL INHIBITION [2]: 70% and 41%

C[C@]12CCC(=O)C=C1CC[C@@H]1[C@@H]2[C@@H](O)C[C@@]2(C)[C@H]1CC[C@]2(O)C(=O)CO [Hydrocortisone]
% Edema inhibition [1]: 32% | Inhibition % B (5-0) [3]: 36% | Net swelling of paw volume A (1-0), average [3, 4]: 0.73 mL | Net swelling of paw volume B (5-0), average [3, 4]: 1.06 mL | Net swelling of paw volume B (5-0) [3, 4]: 0.89 mL and 0.96 mL and 0.86 mL and 0.98 mL and 1.61 mL | Net swelling of paw volume C (5-1), average [3, 4]: 0.33 mL | Net swelling of paw volume C (5-1) [3, 4]: 0.11 mL and 0.31 mL and 0.16 mL and 0.91 mL | Polyarthritis E (ears) [3, 4]: - | Polyarthritis N (noses) [3, 4]: - | Polyarthritis P (paws) [3, 4]: + and - | Polyarthritis T (tails) [3, 4]: - | Inhibition % A (1-0) [3]: 12% | Inhibition % C (5-1) [3, 4]: 60% | Net swelling of paw volume D (14-0), average [3, 4]: 0.35 mL | Net swelling of paw volume D (14-0) [3, 4]: 0.43 mL and 0.31 mL and 0.30 mL and 0.38 mL and 0.33 mL | Inhibition % D (14-0) [3, 4]: 22% | Inhibition % F (18-14) [3, 4]: 37% | Net swelling of paw volume E (18-0), average [3, 4]: 0.54 mL | Net swelling of paw volume E (18-0) [3, 4]: 0.53 mL and 0.38 mL and 0.66 mL and 0.72 mL and 0.41 mL | Net swelling of paw volume F (18-14), average [3, 4]: 0.19 mL | Net swelling of paw volume F (18-14) [3, 4]: 0.10 mL and 0.07 mL and 0.36 mL and 0.34 mL and 0.08 mL | Inhibition % E (18-0) [3, 4]: 28% | Weight gain reductions (in words) [3]: did not affect weight gain reductions

COc1ccc2c(c1)c(CC(=O)O)c(C)n2C(=O)c1ccc(Cl)cc1 [Indomethacin]
% FINAL INHIBITION [2]: 93% | FINAL DAY 28-0 (paw volume) [2]: 0.14 | INITIAL DAY 14-0 (paw volume) [2]: .004 | Inhibition % B (5-0) [3]: 48% | Net swelling of paw volume A (1-0), average [3, 4]: 0.53 mL | Net swelling of paw volume A (1-0) ([3]; Day 1 - Day 0, individual rat, p.o. × 5: PIP[4,4,4] 100, hydrocortisone 30, indomethacin 5 mg/kg): 0.53 mL and 0.58 mL and 0.51 mL and 0.45 mL | Net swelling of paw volume B (5-0), average [3, 4]: 0.85 mL | Net swelling of paw volume B (5-0) [3, 4]: 0.84 mL and 0.86 mL and 0.72 mL and 0.81 mL and 1.02 mL | Net swelling of paw volume C (5-1), average [3, 4]: 0.32 mL | Net swelling of paw volume C (5-1) [3, 4]: 0.31 mL and 0.28 mL and 0.14 mL and 0.30 mL and 0.57 mL | Polyarthritis E (ears) [3, 4]: - | Polyarthritis N (noses) [3, 4]: - | Polyarthritis P (paws) [3, 4]: - | Polyarthritis T (tails) [3, 4]: - | Inhibition % A (1-0) [3]: 36% | Inhibition % C (5-1) [3, 4]: 61% | B.W. Gain (18-0), average ([3]; rat, in vivo): 8 g | Net swelling of paw volume D (14-0), average [3, 4]: 0.28 mL | Net swelling of paw volume D (14-0) [3, 4]: 0.20 mL and 0.40 mL and 0.26 mL and 0.42 mL and 0.12 mL | Inhibition % D (14-0) [3, 4]: 38% | Inhibition % F (18-14) [3, 4]: 50% | Net swelling of paw volume E (18-0), average [3, 4]: 0.43 mL | Net swelling of paw volume E (18-0) [3, 4]: 0.43 mL and 0.50 mL and 0.51 mL and 0.49 mL and 0.22 mL | Net swelling of paw volume F (18-14), average [3, 4]: 0.15 mL | Net swelling of paw volume F (18-14) [3, 4]: 0.23 mL and 0.10 mL and 0.25 mL and 0.07 mL | Inhibition % E (18-0) [3, 4]: 43% | Weight gain reductions (in words) [3]: did not affect weight gain reductions

Source: US5843959A, “Methods and bicyclic polyamine compositions for the treatment of inflammation” (University of Florida Research Foundation, Inc., priority 1997, dated 1998)
